The subject of data set [1] is C. marina. As to the kind of experiment: Bacterial growth inhibition assay (OD600nm). It is filed as cell-based, Cobetia marina. An excerpt: (§1) Five marine bacterial species were used as models to assess antimicrofouling activity. The biofilm-forming marine bacteria Marinobacter hydrocarbonoclasticus DSM 8798 (ATCC 49840), Cobetia marina DSM 4741, Phaeobacter inhibens DSM 17,395, and Pseusooceanicola batsensis DSM 15,984 were obtained from DSMZ (Leibniz Institute DSMZ—German collection of Microorganisms and Cell Cultures) and Micrococcus luteus. Cultures were routinely grown in liquid marine broth (Carl Roth GmbH, Karlsruhe, Germany) with agitation (180 rpm) or on agar-supplemented marine broth, at 28 °C (M. hydrocarbonoclasticus and C. marina) or 30 °C (P. inhibens and P. batsensis). M. luteus was maintained in Brain Heart Infusion broth (BHI, Becton Dickinson, GmbH, Heidelberg, Germany) with agitation (180 rpm) or on agar-supplemented BHI, at 37 °C.
(§2) The antibacterial activity of the napyradiomycins (1–12) was assessed in 96-well polystyrene flat bottom microplates (Nunclon Delta Surface, Thermo Scientific, Roskilde, Denmark) following previously reported procedures. […] After 24 h (M. hydrocarbonoclasticus, C. marina) or 48 h (P. batsensis, P. inhibens, M. luteus) incubation, the OD600nm was determined (Molecular Devices, Spectra Max 190). […] The percentage of growth inhibition was calculated as the amount of growth relative to that of the bacterial species without added compounds (with the same amount of DMSO added). CuSO4 (5 μM), a potent antifouling agent used in antifouling paints, was used as reference.
(§3) All assays were performed in triplicate, and results are representative of the average and standard error of the mean (SEM). Statistical analysis was performed in GraphPad Prism 8.0.2 (San Diego, CA, USA), using one-way ANOVA followed by a Dunnett’s multiple comparisons test against the control (species grown with the same amount of DMSO added).

The test system of data set [2] is M. luteus. In words: Biofilm inhibition assay (crystal violet). It is filed as cell-based, Micrococcus luteus. The method, then:
(§4) In a 96-well plate, biofilm grown cultures of M. hydrocarbonoclasticus and C. marina were incubated with napyradiomycins (1–12) at a concentration of 31.25 µg/mL. After discarding the media, biofilm inhibition was determined from OD600 measurements of crystal violet stained cells resuspended from the plate bottom with acetic acid.
as §1
(§5) The antibiofilm activity of napyradiomycins (1–12) against the five marine bacterial species was assessed in 96-well polystyrene flat bottom microplates (Nunclon Delta Surface, Thermo Scientific, Roskilde, Denmark) as previously reported. For initial screening, bacterial overnight cultures were diluted to an optical density (OD600nm) value of 0.2 and incubated statically at 28 °C (M. hydrocarbonoclasticus, C. marina), 30 °C (P. inhibens, P. batsensis) or 37 °C (M. luteus) in the 96-well microplate in the presence or absence of 31.25 µg/mL of napyradiomycins, solubilized in DMSO. After 24 h (M. hydrocarbonoclasticus, C. marina) or 48 h (P. batsensis, P. inhibens, M. luteus) incubation, the OD600nm was determined. The planktonic cells and media were discarded, and the wells were washed twice with deionized water. The biofilm was fixed for 1 h at 60 °C and stained with crystal violet 0.06% for 10 min. The dye was discarded, and the wells were again washed twice with deionized water. The stained biofilm was solubilized with 30% acetic acid and the OD600nm was determined. […] The percentage of biofilm inhibition was calculated as the amount of biofilm relative to that of the bacterial species without added compounds (with the same amount of DMSO added). CuSO4 (5 μM), a potent antifouling agent used in antifouling paints, was used as reference.
(§6) All assays were performed in triplicate, and results are representative of the average and standard error of the mean (SEM). Statistical analysis was performed in GraphPad Prism 8.0.2, using one-way ANOVA followed by a Dunnett’s multiple comparisons test against the control (species grown with the same amount of DMSO added).

For data set [3], the system named is M. luteus. In words: Bacterial growth inhibition assay (OD600nm). It is filed as cell-based, Micrococcus luteus.
Description: as §1, §2, §3

The subject of data set [4] is M. hydrocarbonoclasticus. As to the kind of experiment: Biofilm inhibition assay (crystal violet). It is filed as cell-based, Marinobacter hydrocarbonoclasticus. The method, then: as §4, §1, §5, §6
In data set [5] the test system is M. galloprovincialis plantigrade larvae. As to the kind of experiment: Mussel plantigrade larvae settlement, 15 h acute exposure assay. The note with it: Mytilus galloprovincialis, 15 h, 95% LCL, UCL in brackets, read-out: EC50 [Conf. limits] larval settlement. It is filed as in vivo. The procedure:
(§7) Mussel (M. galloprovincialis) adhesive larvae (plantigrades) were used to assess in vivo the antifouling activity of napyradiomycins (1–12) towards macrofouling. Juvenile mussel aggregates were collected at the intertidal rocky shore during low spring tides, at Memória beach, Matosinhos, Portugal (41°13′59″ N; 8°43′28″ W). At the laboratory, immediately before the bioassays, mussel plantigrade larvae were screened and isolated from the juvenile aggregates using a binocular microscope (Olympus SZX2-ILLT, Hamburg, Germany) and washed with filtered seawater to remove organic debris. Only competent plantigrade larvae (those showing foot exploratory behavior) were selected and used in the exposure bioassays following previously validated procedures. Plantigrades were exposed in 24-well polystyrene plates for 15 h in the darkness at 18 °C. DMSO was used as solvent for crude extracts, fractions and pure compounds stock and working solutions. Working solutions were prepared by successive dilutions of stock solutions in DMSO and then diluted in filtered seawater to obtain the test solutions. DMSO concentration in test solutions was always 0.1%. Four well replicates were used per condition with five larvae per well. Two negative controls, one with ultra-pure water and the other with DMSO 0.1% were included in all bioassays, as well as a positive control with 5 μM CuSO4 (a potent antifouling agent). Anti-settlement bioactivity was determined by the presence/absence of fixed byssal threads produced by each individual larvae for all the conditions tested. […] Chi-square Pearsons goodness-of-fit test was applied to data in order to determine EC50. Significance was considered at p < 0.01 for all analyses, and 95% lower and upper confidence limits [95% LCL; UCL] were presented. Therapeutic ratio (LC50/EC50) was used to evaluate the effectiveness vs. toxicity of compounds [19, 21].

Assay in data set [6]: as above
It is filed as in vivo. The note with it: Mytilus galloprovincialis (mussel, plantigrade larvae), in vivo, no mortality at highest tested concentration 12 µg/mL. The method, then:
as §7

For data set [7], the system named is P. batsensis. As to the kind of experiment: Biofilm inhibition assay (crystal violet). It is filed as cell-based, Pseudooceanicola batsensis. The procedure: as §4, §1, §5, §6
Data set [8] concerns M. hydrocarbonoclasticus. As to the kind of experiment: Bacterial growth inhibition assay (OD600nm). It is filed as cell-based, Marinobacter hydrocarbonoclasticus. The method, then: (§8) As a first screening approach, liquid cultures of M. hydrocarbonoclasticus, and C. marina in a 96-well format were analyzed for bacterial growth inhibition by percent decrease in OD600 after incubation with napyradiomycins (1–12) at 31.25 µg/mL.
as §1
(§9) The antibacterial activity of the napyradiomycins (1–12) was assessed in 96-well polystyrene flat bottom microplates (Nunclon Delta Surface, Thermo Scientific, Roskilde, Denmark) following previously reported procedures. For initial screening, bacterial overnight cultures were diluted to an optical density (OD600nm) of 0.2 and incubated statically at 28 °C (M. hydrocarbonoclasticus, C. marina), 30 °C (P. inhibens, P. batsensis) or 37 °C (M. luteus) in a 96-well microplate in the presence or absence of 31.25 µg/mL of the napyradiomycins, solubilized in DMSO. After 24 h (M. hydrocarbonoclasticus, C. marina) or 48 h (P. batsensis, P. inhibens, M. luteus) incubation, the OD600nm was determined (Molecular Devices, Spectra Max 190). […] The percentage of growth inhibition was calculated as the amount of growth relative to that of the bacterial species without added compounds (with the same amount of DMSO added). CuSO4 (5 μM), a potent antifouling agent used in antifouling paints, was used as reference.
as §3

Data set [9] concerns P. inhibens. As to the kind of experiment: Biofilm inhibition assay (crystal violet). It is filed as cell-based, Phaeobacter inhibens. The procedure:
as §4, §1, §5
All assays were performed in triplicate, and results are representative of the average and standard error of the mean (SEM). […]

For data set [10], the system named is P. inhibens. As to the kind of experiment: Bacterial growth inhibition assay (OD600nm). It is filed as cell-based, Phaeobacter inhibens. The method, then: as §8
Five marine bacterial species were used as models to assess antimicrofouling activity. The biofilm-forming marine bacteria Marinobacter hydrocarbonoclasticus DSM 8798 (ATCC 49840), Cobetia marina DSM 4741, Phaeobacter inhibens DSM 17,395, and Pseusooceanicola batsensis DSM 15,984 were obtained from DSMZ (Leibniz Institute DSMZ—German collection of Microorganisms and Cell Cultures) and Micrococcus luteus. […]
The antibacterial activity of the napyradiomycins (1–12) was assessed in 96-well polystyrene flat bottom microplates (Nunclon Delta Surface, Thermo Scientific, Roskilde, Denmark) following previously reported procedures. […] After 24 h (M. hydrocarbonoclasticus, C. marina) or 48 h (P. batsensis, P. inhibens, M. luteus) incubation, the OD600nm was determined (Molecular Devices, Spectra Max 190). […] The percentage of growth inhibition was calculated as the amount of growth relative to that of the bacterial species without added compounds (with the same amount of DMSO added). […]

Data set [11] has as its system C. marina. As to the kind of experiment: Biofilm inhibition assay (crystal violet). It is filed as cell-based, Cobetia marina. The method, then:
as §4, §1, §5, §6

Data set [12] deals with P. batsensis. As to the kind of experiment: Bacterial growth inhibition assay (OD600nm). It is filed as cell-based, Pseudooceanicola batsensis. The procedure: as §8, §1, §9, §3
Another data set deals with M. edulis. The arrangement: method as in doi:10.1016/S0044-8486(97)00209-3. The note with it: against M. edulis ref 62; cited from earlier work.

For orientation: inhibition means the percentage by which the read-out fell short of the control. The term EC50 denotes the midpoint of the concentration-response curve. A word on the LC50: it is the concentration lethal to half of the exposed cells or organisms. A high value points to lower toxicity.

≈ marks a conversion by molar mass, not a printed value.

For `CC(=CCCC(C)=CCC12OC(C)(C)C(Cl)CC1(Cl)C(=O)c1c(O)cc(O)cc1C2=O)CO` (centres unmarked) [Napyradiomycin 2, 18-hydroxynapyradiomycin A1], the “% growth inhibition C. marina” value with C. marina [1] (31.25 µg/mL) was “did not inhibit growth”. Also, the “% Biofilm Inhibition ± SEM M. luteus” value in the data set with M. luteus [2] (31.25 µg/mL) was “N.I”. Also, in the data set with M. luteus [3] (31.25 µg/mL), the “% growth inhibition M. luteus” value is recorded as “did not inhibit growth”. The inhibition at 0.98 µg/mL in the data set with M. hydrocarbonoclasticus [4] (Marinobacter nauticus, 0.98 µg/mL, read-out: % inhibition of biofilm formation M. hydro.) stood at 24.6 ± 9.8%. For the same compound, the inhibition at 1.95 µg/mL in the data set on M. hydrocarbonoclasticus [4] (Marinobacter nauticus, 1.95 µg/mL, read-out: % inhibition of biofilm formation M. hydro.) amounted to 56.5 ± 5.7%. The inhibition at 15.6 µg/mL with M. hydrocarbonoclasticus [4] (Marinobacter nauticus, 15.6 µg/mL, read-out: % inhibition of biofilm formation M. hydro.) stood at 56.6 ± 0.9%. The inhibition at 31.25 µg/mL in the data set on M. hydrocarbonoclasticus [4] (Marinobacter nauticus, 31.25 µg/mL, read-out: % Biofilm Inhibition ± SEM M. hydrocarbonoclasticus) came to 60.2 ± 5.7%. The EC50 in [5] was 2 µg/mL (≈ 4.02 µM). Also, in data set [6], the LC50 at 15 h was above 12 µg/mL. Also, the “% Biofilm Inhibition ± SEM P. batsensis” value with P. batsensis [7] (31.25 µg/mL) is listed as “N.I”. Further, the “% growth inhibition M. hydrocarbonoclasticus” value with M. hydrocarbonoclasticus [8] (31.25 µg/mL) is listed as “did not inhibit growth”. Also, the “% Biofilm Inhibition ± SEM P. inhibens” value in the data set with P. inhibens [9] (31.25 µg/mL) is reported as “N.I”. For the same compound, the “% growth inhibition P. inhibens” value in the data set on P. inhibens [10] (31.25 µg/mL) is “did not inhibit growth”. Also, the “% Biofilm Inhibition ± SEM C. marina” value in the data set on C. marina [11] (31.25 µg/mL) is on record as “N.I”. In addition, the “% growth inhibition P. batsensis” value in the data set with P. batsensis [12] (31.25 µg/mL) is listed as “did not inhibit growth”.
`O=S(=O)([O-])[O-].[Cu+2]` [CuSO4, reference compound]: in the data set with C. marina [1] (CuSO4 5 μM reference), the “growth inhibition C. marina” value is recorded as “not inhibited”. Besides, the “biofilm inhibition M. luteus” value with M. luteus [2] (CuSO4 5 μM reference) is “not inhibited”. Also, the “growth inhibition M. luteus” value with M. luteus [3] (CuSO4 5 μM reference) is on record as “not inhibited”. In addition, the “biofilm inhibition M. hydrocarbonoclasticus” value in the data set on M. hydrocarbonoclasticus [4] (CuSO4 5 μM reference) is “not inhibited”. Besides, in the data set with P. batsensis [7] (CuSO4 5 μM reference), the “% biofilm inhibition P. batsensis” value is 41.4 ± 0.9%. For the same compound, the “% growth inhibition M. hydrocarbonoclasticus” value with M. hydrocarbonoclasticus [8] (CuSO4 5 μM reference) came out at 35.8 ± 0.8%. In the data set on P. inhibens [9] (CuSO4 5 μM reference), the “% biofilm inhibition P. inhibens” value worked out at 12.9 ± 6.4%. Further, the “% growth inhibition P. inhibens” value in the data set with P. inhibens [10] (CuSO4 5 μM reference) turned out to be 66.2 ± 5.6%. In addition, the “biofilm inhibition C. marina” value in the data set on C. marina [11] (CuSO4 5 μM reference) is reported as “not inhibited”. Besides, in the data set on P. batsensis [12] (CuSO4 5 μM reference), the “% growth inhibition P. batsensis” value amounted to 44.8 ± 6.3%.
Regarding ivermectin, the EC50 in the data set on M. edulis is 0.4 µg/mL.

The values are drawn from PMC7024211, “Antifouling Napyradiomycins from Marine-Derived Actinomycetes Streptomyces aculeolatus” (Marine Drugs, 2020).
